Literature values in patent US12100485B2, “Machine learning and molecular simulation based methods for enhancing binding and activity prediction” (The Board of Trustees of the Leland Stanford Junior …, priority 2018, dated 2024).

Test system: μOR
Settings: not given
For `CCOC(=O)C1(c2cccc(O)c2)CCN(C)CC1` [hydroxypethidine], the Action is given as “agonist”.
For `Oc1ccc2c(c1)[C@@]13CCCC[C@H]1[C@@H](C2)N(CCc1ccccc1)CC3` [phenomorphan], the Action is listed as “agonist”.
In the case of `Oc1cccc([C@@]23CCCC[C@H]2CN(CC2CC2)CC3)c1` [ciprefadol], the Action is listed as “agonist”.
In the case of `CN1CCC23CCCCC2C1Cc1ccc(O)cc13` (stereo not drawn) [racemorphan], the Action is listed as “agonist”.
For `N#CC(CCN1CCC(C(N)=O)(N2CCCCC2)CC1)(c1ccccc1)c1ccccc1` [piritramide], the Action is given as “agonist”.
In the case of `CN1CC[C@]23c4c5ccc(O)c4O[C@H]2[C@@H](O)C=C[C@H]3[C@H]1C5` [morphine], the Action is given as “agonist”.
For `CN1CC[C@]23CCCC[C@H]2[C@H]1Cc1ccc(O)cc13` [levorphanol], the Action is given as “agonist”.
In the case of `C=CCN1CC[C@]23c4c5ccc(O)c4O[C@H]2/C(=N/N=C2\CC[C@@]4(O)[C@H]6Cc7ccc(O)c8c7[C@@]4(CCN6CC=C)[C@H]2O8)CC[C@@]3(O)[C@H]1C5` [naloxonazine], the Action is listed as “Antagonists”.
In the case of `CCOC(=O)C1(c2ccccc2)CCN(CCN2CCOCC2)CC1` [morpheridine], the Action is listed as “agonist”.
In the case of `CN1CC[C@]23c4c5ccc(O)c4O[C@H]2C(=O)CC[C@@]3(O)[C@H]1C5` [oxymorphone], the Action is given as “agonist”.
For `CCOC(C(=O)OCCN(C)C)(c1ccccc1)c1ccccc1` [dimenoxadol], the Action is given as “agonist”.
In the case of `CCC(=O)C(CC(C)N1CCOCC1)(c1ccccc1)c1ccccc1` (stereo not shown) [phenadoxone], the Action is given as “agonist”.
For `N/N=C1/CC[C@@]2(O)[C@H]3Cc4ccc(O)c5c4[C@@]2(CCN3CC2CC2)[C@H]1O5` [naltrexazone], the Action is given as “Antagonists”.
In the case of `CC1C2Cc3ccc(O)cc3C1(C)CCN2CCc1ccccc1` (stereo not shown) [phenazocine], the Action is given as “agonist”.
For `CC(C)OC(=O)C1(c2ccccc2)CCN(C)CC1` [properidine], the Action is given as “agonist”.
In the case of `C=CCC1CN(C)CCC1(OC(=O)CC)c1ccccc1` (stereo not shown) [allylprodine], the Action is listed as “agonist”.
For `CCOC(=O)C(CCN1CCOCC1)(c1ccccc1)c1ccccc1` [dioxaphetyl_butyrate], the Action is listed as “agonist”.
In the case of `CCC(O)C(CC(C)N(C)C)(c1ccccc1)c1ccccc1` (stereo not shown) [dimepheptanol], the Action is listed as “agonist”.
In the case of `CC[C@@H](OC(C)=O)C(C[C@@H](C)N(C)C)(c1ccccc1)c1ccccc1` [alphacetylmethadol], the Action is given as “agonist”.
For endomorphin-2, the Action is listed as “agonist”.
In the case of `CO[C@H]1C=C[C@H]2[C@H]3Cc4ccc(O)c5c4[C@@]2(CCN3C)[C@H]1O5` [heterocodeine], the Action is listed as “agonist”.
For endomorphin-1, the Action is listed as “agonist”.
In the case of `CCC(=O)C(C[C@@H](C)N(C)C)(c1ccccc1)c1ccccc1` [levomethadone], the Action is given as “agonist”.
In the case of `CN1CC[C@]2(C)c3cc(O)ccc3C[C@H]1C2(C)CCC(=O)CCC1CCCC1` (stereo partly shown) [quadazocine], the Action is given as “Antagonists”.
For `CC[C@H](O)C(C[C@@H](C)N(C)C)(c1ccccc1)c1ccccc1` [betamethadol], the Action is listed as “agonist”.
In the case of `CNC1(c2ccccc2Cl)CCCCC1=O` (stereo not shown) [ketamine], the Action is listed as “agonist”.
For `CCOC(=O)C1(c2ccccc2)CCN(CCC(C#N)(c2ccccc2)c2ccccc2)CC1` [diphenoxylate], the Action is listed as “agonist”.
For `CCOC(=O)C1(c2ccccc2)CCN(C)CC1` [pethidine], the Action is given as “agonist”.
In the case of `C[N@+]1(CC2CC2)CC[C@]23CC(=O)CC[C@@]2(O)[C@H]1Cc1ccc(C(N)=O)c(O)c13` [methylsamidorphan], the Action is listed as “antagonist”.
In the case of `CC[C@@H]1CN2CC[C@]3(Nc4cccc(OC)c4C3=O)[C@@H]2C[C@@H]1/C(=C\OC)C(=O)OC` [mitragynine_pseudoindoxyl], the Action is given as “agonist”.
In the case of `COc1ccc2c3c1O[C@H]1[C@@H](O)CC[C@H]4[C@@H](C2)N(C)CC[C@@]341` [methyldihydromorphine], the Action is listed as “agonist”.
In the case of `CCOC(=O)C1(c2ccccc2)CCCN(C)CC1` (stereo not shown) [ethoheptazine], the Action is given as “agonist”.
For `NC(=O)c1ccc2c(c1O)[C@]13CCN(CC4CC4)[C@H](C2)[C@]1(O)CCC(=O)C3` [samidorphan], the Action is listed as “Antagonists”.
In the case of `C[C@H](CN1CCOCC1)C(C(=O)N1CCCC1)(c1ccccc1)c1ccccc1` [dextromoramide], the Action is listed as “agonist”.
In the case of `CCOC(=O)C1(c2ccccc2)CCN(CCOCCO)CC1` [etoxeridine], the Action is listed as “agonist”.
In the case of `CN(C)C(=O)C(CCN1CCC(O)(c2ccc(Cl)cc2)CC1)(c1ccccc1)c1ccccc1` [loperamide], the Action is listed as “agonist”.
For `CCCCCN[C@@]12C=CC(=O)[C@@H]3Oc4c(O)ccc5c4[C@@]31CCN(C)[C@@H]2C5` [pentamorphone], the Action is listed as “agonist”.
For `CC[C@@H](O)C(C[C@@H](C)N(C)C)(c1ccccc1)c1ccccc1` [alphamethadol], the Action is given as “agonist”.
In the case of `CCC(=O)OC1(c2ccccc2)CCCN(C)CC1C` (stereo not shown) [proheptazine], the Action is listed as “agonist”.
In the case of `Oc1ccc2c3c1O[C@H]1[C@@H](O)C=C[C@H]4[C@@H](C2)N(CCc2ccccc2)CC[C@@]341` [n-phenethylnormorphine], the Action is given as “agonist”.
For `CC1=CC[C@H]2[C@H]3Cc4ccc(O)c5c4[C@@]2(CCN3C)[C@H]1O5` [methyldesorphine], the Action is given as “agonist”.
For `CCOC(=O)C1(c2ccccc2)CCN(CCc2ccc(N)cc2)CC1` [anileridine], the Action is given as “agonist”.
For `C=CCN1CC[C@]23c4c5ccc(O)c4O[C@H]2[C@@H](OCCOCCOCCOCCOCCOCCOCCOC)CC[C@@]3(O)[C@H]1C5` [naloxegol], the Action is given as “Antagonists”.
In the case of `CCC(=O)O[C@](Cc1ccccc1)(c1ccccc1)[C@H](C)CN(C)C` [dextropropoxyphene], the Action is given as “agonist”.
In the case of `CCOC(=O)C1(c2ccccc2)CCN(CCCNc2ccccc2)CC1` [piminodine], the Action is given as “agonist”.
For `CCOC(=O)C1(c2ccccc2)CCC=CC1N(C)C` (stereo not shown) [tilidine], the Action is given as “agonist”.
In the case of `Cc1ccc(/C=C/C(=O)N[C@@]23CCC(=O)[C@@H]4Oc5c(O)ccc6c5[C@@]42CCN(CC2CC2)[C@@H]3C6)cc1` [methocinnamox], the Action is given as “antagonist”.
For `COC(=O)/C=C/C(=O)N[C@@H]1CC[C@@]2(O)[C@H]3Cc4ccc(O)c5c4[C@@]2(CCN3CC2CC2)[C@H]1O5` [beta-funaltrexamine], the Action is given as “antagonist”.
In the case of `CCC(=O)OC1(c2ccccc2)CC(C)N(C)CC1C` (stereo not shown) [trimeperidine], the Action is given as “agonist”.
In the case of `CCOC(=O)C1(c2ccccc2)CCN(CCOCC2CCCO2)CC1` (stereo not shown) [furethidine], the Action is given as “agonist”.
For `CCC(=O)C(CC(C)N(C)C)(c1ccccc1)c1ccccc1` (stereo not shown) [methadone], the Action is listed as “agonist”.
For `NC(=O)c1cccc([C@H]2C[C@H]3CC[C@@H](C2)N3CCN(CC2CCCCC2)C(=O)[C@@H](O)CO)c1` [axelopran], the Action is listed as “antagonist”.
For `CO[C@@]12CCC(=O)[C@@H]3Oc4c(O)ccc5c4[C@@]31CCN(C)[C@@H]2C5` [14-methoxydihydromorphinone], the Action is given as “agonist”.
In the case of `CCOC(=O)C1(c2ccccc2)CCN(CCOCc2ccccc2)CC1` [benzethidine], the Action is given as “agonist”.
In the case of `CN1CC[C@]23c4c5ccc(O)c4O[C@H]2[C@@H](O[C@@H]2O[C@H](C(=O)O)[C@@H](O)[C@H](O)[C@H]2O)C=C[C@H]3[C@H]1C5` [morphine-6-glucuronide], the Action is listed as “agonist”.
For `Oc1ccc2c(c1)[C@@]13CCCC[C@@]1(O)[C@@H](C2)N(CC1CC1)CC3` [oxilorphan], the Action is listed as “Antagonists”.
In the case of `O=C(CN1CC[C@]23CCCC[C@H]2[C@H]1Cc1ccc(O)cc13)c1ccccc1` [levophenacylmorphan], the Action is given as “agonist”.
For `CO[C@@]12CCC(=O)[C@]3(C)Oc4c(O)ccc5c4[C@@]31CCN(C)[C@@H]2C5` [14-methoxymetopon], the Action is listed as “agonist”.
For `CCC(=O)C(c1ccccc1)(c1ccccc1)C(C)CN(C)C` (stereo not shown) [isomethadone], the Action is listed as “agonist”.
For `CC[C@H](OC(C)=O)C(C[C@@H](C)N(C)C)(c1ccccc1)c1ccccc1` [betacetylmethadol], the Action is given as “agonist”.
For `CCC(=O)OC1(c2ccccc2)CCN(C)C1C` (stereo not shown) [prodilidine], the Action is given as “agonist”.
In the case of `CCOC(=O)C1(c2ccccc2)CCN(CCC(O)c2ccccc2)CC1` (stereo not shown) [phenoperidine], the Action is given as “agonist”.
For `CN1CC[C@]23c4c5ccc(O)c4O[C@H]2CCC[C@H]3[C@H]1C5` [desomorphine], the Action is listed as “agonist”.
For `CCC(=O)O[C@]1(c2ccccc2)CCN(C)C[C@@H]1CC` [meprodine], the Action is listed as “agonist”.
In the case of `CC(C)C[C@@H](NC(=O)[C@H](Cc1ccccc1)NC(=O)CNC(=O)[C@@H](C)NC(=O)[C@@H](N)Cc1ccc(O)cc1)C(=O)O` [dadle], the Action is listed as “agonist”.
For `C[C@@H](NC(=O)[C@@H](N)Cc1ccc(O)cc1)C(=O)NCC(=O)N(C)[C@@H](Cc1ccccc1)C(=O)NCCO` [damgo], the Action is given as “agonist”.
For `N#CC(CCN1CCC(C(=O)O)(c2ccccc2)CC1)(c1ccccc1)c1ccccc1` [difenoxin], the Action is listed as “agonist”.
In the case of endomorphin, the Action is given as “agonist”.
For `CCC(=O)C1(c2cccc(O)c2)CCN(C)CC1` [ketobemidone], the Action is listed as “agonist”.
For `CCOC(=O)C1(c2ccccc2)CCN(CC(O)c2ccccc2)CC1` (stereo not shown) [oxpheneridine], the Action is listed as “agonist”.
In the case of `O=C(N[C@@H]1CC[C@@]2(O)[C@H]3Cc4ccc(O)c5c4[C@@]2(CCN3CC2CC2)[C@H]1O5)c1cccc(I)c1` [ibntxa], the Action is given as “agonist”.
In the case of `CCC(OC(C)=O)C(CC(C)N(C)C)(c1ccccc1)c1ccccc1` (stereo not shown) [acetylmethadol], the Action is listed as “agonist”.
In the case of `CN1CC[C@]23c4c5ccc(O)c4O[C@@]2(C)C(=O)CC[C@H]3[C@H]1C5` [metopon], the Action is listed as “agonist”.
For `CN1CC[C@]2(C)C[C@@H](Cc3ccc(O)cc32)C1` [eptazocine], the Action is listed as “antagonist”.

Same assay, conditions: known pharmacology, training dataset
In the case of `O=C1CC[C@@]2(O)[C@H]3Cc4ccc(O)c5c4[C@@]2(CCN3CC2CC2)[C@H]1O5` [naltrexone], the Action is given as “Antagonists”.
In the case of `C[C@H]1CN(C[C@H](Cc2ccccc2)C(=O)NCC(=O)O)CC[C@@]1(C)c1cccc(O)c1` [alvimopan], the Action is listed as “antagonist”.
For `C[N@+]1(CC2CC2)CC[C@]23c4c5ccc(O)c4O[C@H]2C(=O)CC[C@@]3(O)[C@H]1C5` [methylnaltrexone], the Action is given as “antagonist”.
For `C=C1CC[C@@]2(O)[C@H]3Cc4ccc(O)c5c4[C@@]2(CCN3CC2CC2)[C@H]1O5` [nalmefene], the Action is given as “Antagonists”.
For `CN(C)CC(C)(C)C(=O)c1ccccc1` [dimethylaminopivalophenone], the Action is listed as “agonist”.
